l = locked nucleic acid (LNA); d = 2'-deoxy (DNA)
Experiments:
AMO1/abzb xenografts = assay: In vivo tumor growth of Bortezomib-refractory AMO1/abzb xenografts (IVIS); set-up: species or system mice; conditions: I.P. Bortezomib 1 mg/kg; Bortezomib-refractory model
Source text: Male CB-17 severe combined immunodeficient (SCID) mice (6- to 8-weeks old; Harlan Laboratories, Inc., Indianapolis) were housed and monitored in our Animal Research Facility. All experimental procedures and protocols had been approved by the Institutional Ethical Committee (Magna Graecia University) and conducted according to protocols approved by the National Directorate of Veterinary Services (Italy). In accordance with institutional guidelines, mice were sacrificed when tumors reached 2 cm in diameter or in the event of paralysis or major compromise, to prevent unnecessary suffering. Animal experimental procedures have been performed as in previous reports (Di Martino et al, CCR 2012; Di Martino el al. Oncotarget 2013, Di Martino et al PlosOne 2014). […] Mice were also inoculated with 5×10^6 luciferase gene-marked U266, AMO-1, AMO-1/abzb, treatments were performed intraperitoneally (i.p.), and tumor volume were measured by IVIS Lumina II.
In vivo anti-MM activity of LNA gapmer_06 was next evaluated in NOD/SCID mice bearing subcutaneous AMO1 xenografts. […] Tumors volume were measured using IVIS LUMINA II Imaging We next evaluate the in vivo activity in Bortezomib-refractory model of human MM. […] Tumors volume were measured using IVIS LUMINA II Imaging System.

[1] = test system: miR-17-92 primary transcript (pri-miRs) and mature miR-17-92 cluster members; assay: q-RT-PCR of miR-17-92 member family and two pri-miRs after transfection of MM cells; type: cell-based, Human; conditions: 48 hours after transfection with 25 nM; NCI-H929 and RPMI-8226 cells; relative to RNase-free water
Method: 3×10^5 cells were transfected using Neon Transfection System (Invitrogen, Calif.,U.S.), (2 pulses at 1150, 30ms). The transfection efficiency evaluated by flow-cytometric analysis relative to a FAM dye—labeled anti-miR—negative control reached 85% to 90%.
Reverse transcription (RT) of both primary and mature miRNAs was performed using TaqMan® MicroRNA Assays, following a procedure for multiplexing the RT step (Life Technologies, Publication Part Number 4465407). Briefly, 500 ng of total RNA, prepared with the TRIzol® Reagent (Invitrogen), underwent reverse transcription by the Taq-Man® MicroRNA RT Kit. In this reaction, the RT primer pool was composed by the individual RT primers for each microRNA belonging to the miR-17-92 cluster and two RT primers to allow the reverse transcription of the miR-17-92 primary miRNA. Real-time PCR was performed using TaqMan® MicroRNA Assays together with the TaqMan® Universal PCR Master Mix on an ViiA7 System (Life Technologies). Both primary and mature microRNAs expressions were relatively quantified using the 2-ΔΔCt method (Applied Biosystems User Bulletin No. 2), and expressed as the relative quantity of target miRNA normalized to the RNU44 (assay ID 001094) housekeeping gene. Comparative real-time polymerase chain reaction (RT-PCR) was performed in triplicate, including no-template controls. Relative expression was calculated using the comparative cross threshold (Ct) method.
By the use of a custom q-RT-PCR plate specifically designed by us to detect all six mature miR-17-92 members and the primary transcript by two different assays (pri-mir-17/18a/19a and pri-mir-19b1/20a/92a1), we quantified in a panel of 11 MM cell lines the levels of the different miRNAs and pri-miRs.

## CC(C)C[C@H](NC(=O)[C@H](Cc1ccccc1)NC(=O)c1cnccn1)B(O)O [Bortezomib, reference compound]
AMO1/abzb xenografts
  tumor growth (IVIS tumor volume): no effect on tumor-growth

## gapmer_15: LNA/DNA gapmer, SEQ ID 7 (16 mer): +A*+G*+C*A*C*T*C*A*A*C*A*T*C*+A*+G*+C (AGCACTCAACATCAGC; sugars from the 5' end l3 d10 l3, all phosphorothioate, methylation of C not given here)
[1]
  downregulation of primary and mature miRNA sequences (q-RT-PCR): strongest downregulation of primary transcripts and miR-17-92 mature members

Source: patent publication US20180051284A1, “INHIBITORS OF MIR-17-92 CLUSTER FOR ANTI-TUMOR ACTIVITY IN MULTIPLE MYELOMA AND OTHER MALIGNANCIES” (priority 2014, published 2018)
